Blank lines part the entries; values can stand above or below the compound they belong to.
Legend:
[1] = tested on: RIM tumour (rhabdomyo-sarcoma); experiment: In vivo evaluation of SPECT tracers in RIM tumour (rhabdomyo-sarcoma)-bearing rats; set-up: species or system rat
Description: In the research that led to the invention two new potential SPECT tracers, 2-^123I-tyrosine (2-^123I-Tyr) and 2-^123-I-phenylalanine, were developed.

R1M tumour = experiment: PET of R1M tumour bearing rat after intravenous injection; assay type: in vivo; conditions: 120 Mbq intravenously, FIG. 2
Description: FIG. 2: PET of R1M tumour bearing rat. The tumour is visible at the upper right, the pancreas in the middle and the bladder under. 120 Mbq L-2-^18F-methyl-phenylalanine was intravenously injected.
In Vivo Rat Evaluation of L-2-18F-methyl-phenylalanine in a R1M Tumour Bearing Rat by Means of PET
The latter is typical for rodent.

[2] = target: T1, L-transport system 1 (LAT1) (Rattus norvegicus, UniProt Q63016); experiment: Inhibition of L-3H-phenylalanine uptake in rat rhabdomyo-sarcoma (R1M) cells in vitro; assay type: cell-based
T1 construct: endogenous in cells; host or cells: R1M rat rhabdomyosarcoma cells
T1 sequence (Q63016 whole entry): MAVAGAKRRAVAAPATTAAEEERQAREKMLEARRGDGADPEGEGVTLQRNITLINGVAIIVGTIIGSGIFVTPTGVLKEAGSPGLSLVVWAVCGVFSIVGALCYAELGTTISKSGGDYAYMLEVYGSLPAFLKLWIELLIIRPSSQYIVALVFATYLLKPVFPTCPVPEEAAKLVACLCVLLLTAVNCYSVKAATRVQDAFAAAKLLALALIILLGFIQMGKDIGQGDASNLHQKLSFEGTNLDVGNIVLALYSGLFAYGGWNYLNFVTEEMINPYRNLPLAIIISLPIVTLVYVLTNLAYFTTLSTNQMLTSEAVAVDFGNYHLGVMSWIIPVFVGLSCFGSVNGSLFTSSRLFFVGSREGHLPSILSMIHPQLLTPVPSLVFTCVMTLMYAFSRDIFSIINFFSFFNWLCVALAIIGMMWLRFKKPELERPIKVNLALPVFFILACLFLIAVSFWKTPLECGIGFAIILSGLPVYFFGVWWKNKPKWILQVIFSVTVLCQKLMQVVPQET
T1 sequence (Q794F9 whole entry partner): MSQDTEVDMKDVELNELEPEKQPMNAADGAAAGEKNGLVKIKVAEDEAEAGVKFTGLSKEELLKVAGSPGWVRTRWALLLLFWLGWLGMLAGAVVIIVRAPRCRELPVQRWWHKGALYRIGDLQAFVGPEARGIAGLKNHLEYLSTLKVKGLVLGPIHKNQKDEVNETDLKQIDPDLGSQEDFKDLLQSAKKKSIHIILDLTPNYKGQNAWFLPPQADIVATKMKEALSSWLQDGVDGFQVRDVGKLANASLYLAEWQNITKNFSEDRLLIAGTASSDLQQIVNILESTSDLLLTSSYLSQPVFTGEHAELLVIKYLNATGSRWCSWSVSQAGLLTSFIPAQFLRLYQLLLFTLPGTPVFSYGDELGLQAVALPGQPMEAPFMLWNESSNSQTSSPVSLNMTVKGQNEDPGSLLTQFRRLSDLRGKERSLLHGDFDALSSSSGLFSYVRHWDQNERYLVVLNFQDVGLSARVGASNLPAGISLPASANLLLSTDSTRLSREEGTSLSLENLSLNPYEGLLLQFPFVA
Experimental: FIG. 1: Inhibition of ^3H-Phe/Phe uptake in R1M cells in vitro by L-2-F-methyl-PHE. The common intercept proves that the inhibition is competitive and that L-2-F-methyl-Phe uses the same transport system as L-Phe.
The affinity of L-2-F-methyl-phenylalanine for uptake by the L-transport system 1 (LAT1) in cancer cells (rat rhabdomyo-sarcoma cells) was determined by measuring the inhibition of the uptake of L-^3H-phenylalanine after 15 minutes incubation in HEPES buffer of pH 7.4 containing appropriate amounts of L-phenylalanine and of L-2-F-methyl-phenylalanine. The uptake was saturable and followed the typical Michaelis-Menten relation allowing to draw Lineweaver-Burk (FIG. 1) plots.

R1M cells = experiment: Preliminary uptake experiments in R1M cells in vitro; assay type: cell-based; conditions: buffer simulating in vivo conditions
Description: The inventors considered based on the results obtained with ^18F-FET and their own results with 2-^123I-Phe and 2-^123I-Tyr that the aromatic amino acid properties are conserved after substitution of an O-ethyl group and even in the presence of a voluminous iodine atom. This invention is thus based on the new approach to introduce an alkyl side chain on the phenyl ring to facilitate introduction of the radioactive atom. They thus provided an ^18F-alkyl-phenyl structure in phenylalanine and tyrosine, either ortho, meta or para. Examples are ^18F-CH[…] or ^18F-CH2-CH[…] and 2-^18F-CH[…] or 2-^18F-CH2-CH[…]. This reduces the labelling chemistry to direct conventional nucleophilic aliphatic substitution on the alkylphenylic side branch of the L-amino acid. In this approach cumbersome stereospecific synthesis is not required. The same strategy was followed for the radio-fluorination of the aliphatic amino acids leucine and isoleucine. […] Since aliphatic-substituted F hardly changes the pharmacology, it follows that these aliphatic amino acids are also suitable molecules for radio-fluorination.

activity in the kidneys relative to IMT ([1]; rat, in vivo): 10 times less | high brain uptake observed ([1]; rat, in vivo): no | renal accumulation ([1]; rat, in vivo): no renal accumulation | uptake in the tumours ([1]; rat, in vivo): high uptake
Compound: N[C@@H](Cc1ccccc1[123I])C(=O)O [2-^123-I-phenylalanine]

Compound: N[C@@H](Cc1ccc(O)cc1[123I])C(=O)O [2-^123I-tyrosine]
activity in the kidneys relative to IMT ([1]; RIM tumour-bearing rats): 10 times less | high brain uptake observed ([1]; RIM tumour-bearing rats): no | renal accumulation ([1]; RIM tumour-bearing rats): no renal accumulation | uptake in the tumours ([1]; RIM tumour-bearing rats, comparable with IMT): high uptake

accumulation in the kidneys or other organs (PET) (R1M tumour): No accumulation | uptake in the tumour and pancreas (PET) (R1M tumour): high uptake
Compound: N[C@@H](Cc1ccccc1C[18F])C(=O)O [L-2-18F-methyl-phenylalanine]
route of clearance (PET) (R1M tumour): cleared through the kidneys to the bladder

Ki ([2]; 15 minutes incubation, HEPES buffer pH 7.4, rat rhabdomyo-sarcoma cells): 76 µM | type of inhibition of 3H-Phe/Phe uptake (Lineweaver-Burk plots) ([2]; R1M cells in vitro, FIG. 1): competitive
Compound: N[C@@H](Cc1ccccc1CF)C(=O)O [L-2-F-methyl-phenylalanine]

Km ([2]; same conditions: 15 minutes incubation, HEPES buffer pH 7.4, rat rhabdomyo-sarcoma cells): 65 µM
Compound: N[C@@H](Cc1ccccc1)C(=O)O [L-phenylalanine]

Compound: CC(C)C[C@H](N)C(=O)O [^3H-leucine]
uptake in R1M cells (R1M cells): comparable with 3H-Tyr and ^3H-Phe

Compound: ^3H-isoleucine
uptake in R1M cells (R1M cells): comparable with 3H-Tyr and ^3H-Phe

Reference: US7189383B2, “Radioactively labelled amino acid analogues, their preparation and use” (Mallinckrodt Inc., priority 2002, dated 2007)
